Measured values: a melting point compilation (Tetko et al.)

Row | SMILES | melting point [°C]
1 | Cn1cc(CO)c(-c2ccccc2)n1 | 107 to 109
2 | O=C(O)c1cnc(-c2ccc3c(c2)CCO3)s1 | 215 to 217
3 | Cc1ccc(-c2n[nH]cc2Br)cc1 | 104 to 106
4 | N#Cc1cccc(Oc2ccc(N)cn2)c1 | 104 to 106
5 | Nc1ccc(CN2C(=O)CCC2=O)cc1 | 141 to 143
6 | NNC(=O)c1ccc2c(=O)n3c(nc2c1)CCC3 | 268 to 270
7 | O=C1CCCc2nc(-c3ccccc3)sc21 | 119 to 121
8 | Cn1c(S)nnc1-c1ccccc1Cl | 144 to 146
9 | NC(=O)c1ccc(CCl)c([N+](=O)[O-])c1 | 115 to 117
10 | O=C(Nc1ccccc1)c1cccc(-n2ccnc2S)c1 | 228 to 230
11 | CCC(CC)n1ccc(C(=O)O)n1 | 68 to 70
12 | CNC(=S)NCCN1CCOCC1 | 103 to 105
13 | NC(=O)C1Cc2cc(S(N)(=O)=O)ccc2O1 (centres undefined) | 223 to 225
14 | NS(=O)(=O)N1CCN(Cc2ccccc2)CC1 | 147 to 149
15 | Nc1nc(-c2ccc([N+](=O)[O-])cc2)n[nH]1 | 278 to 280
16 | CC(C(=O)O)c1ccc2ccccc2c1 (centres undefined) | 120 to 122
17 | COCCNc1ccc(C(F)(F)F)cn1 | 77 to 79
18 | CCOc1ccc(-c2nc(CO)cs2)cc1 | 107 to 109
19 | CCS(=O)(=O)Nc1nc2ccc(N)cc2s1 | 217 to 219
20 | O=C1C2C3CC4C2C(=O)C2C1C3C42 (centres undefined) | 240 to 242
21 | COc1cc(N)ccc1S(=O)(=O)Nc1ccc(F)c(Cl)c1 | 165 to 167
22 | CS(=O)(=O)CC1(CBr)CCOCC1 | 97 to 99
23 | Cc1nn(C)c(C)c1NC(=O)C(C)Cl (centres undefined) | 120 to 122

Row | SMILES | melting point [°C]
24 | Brc1cncc(-c2ncc[nH]2)c1 | 189 to 191
25 | c1ccc2c(c1)C1CCC2N1 | 92 to 94
26 | O=C1CCS(=O)(=O)c2cc(F)c(F)cc21 | 149 to 151
27 | Clc1cc(-c2nnco2)ccn1 | 109 to 111
28 | Fc1ccc(-c2cncc(Cl)n2)cc1 | 95 to 97
29 | NC(CCCN1CCCCC1)=NO | 89 to 91
30 | O=C1CCCN1Cc1nnc(S)o1 | 172 to 174
31 | CN(Cc1ccccc1)S(=O)(=O)c1ccc(N)cc1 | 127 to 131
32 | Nc1ccc(S(=O)(=O)NCc2ccc(Cl)cc2)cc1 | 174 to 176
33 | O=C(O)c1cc(-c2ccncc2)nc2ccccc12 | 308 to 310
34 | O=c1[nH]c2ccccc2cc1CCl | 199 to 201
35 | c1ccc2[nH]c(Cc3nc4ccccc4s3)nc2c1 | 194 to 196
36 | Nc1cccc(OCCc2ccccc2)c1 | 139 to 141
37 | O=C(CC1CCCC1)N1CCNCC1 | 37 to 39
38 | O=C(O)c1ccc(Oc2cccc(Br)c2)nc1 | 154 to 156
39 | O=C(O)c1ccc(S(=O)(=O)NC2CCS(=O)(=O)C2)cc1 (centres undefined) | 303 to 305
40 | NNC(=O)c1nnc(-c2ccccc2)o1 | 173 to 175
41 | Cc1ccc(N2CCCC2)c(C#N)c1 | 42 to 44
42 | Cc1ccn2c(C=O)cnc2c1 | 80 to 82
43 | CC(C)(C)CS(N)(=O)=O | 119 to 121
44 | NNc1ccccc1S(=O)(=O)N1CCOCC1 | 141 to 143
45 | CCc1cc(Cl)nc(-c2ccccn2)n1 | 79 to 81
46 | O=[N+]([O-])c1ccc2oc(S)nc2c1 | 241 to 243

Row | SMILES | melting point [°C]
47 | NNC(=O)c1cnccn1 | 170 to 172
48 | CCc1ccc(C(=O)c2cccc(S(C)(=O)=O)c2)cc1 | 97 to 99
49 | O=C(O)c1cccc(Nc2ncccn2)c1 | 270 to 272
50 | O=C(O)c1cccc(C(F)(F)C(F)(F)F)c1 | 94 to 96
51 | O=C(Nc1cccc(Cl)c1N1CCOCC1)OCC(F)(F)F | 74 to 76
52 | O=C1Nc2c(Br)cc(Cl)cc2C1=O | 245 to 247
53 | CN1CC(=O)Nc2cnccc21 | 274 to 276
54 | NC(=C[N+](=O)[O-])N1CCOCC1 | 236 to 238
55 | O=C(O)c1ccnc(C2CCCC2)n1 | 129 to 131
56 | NC(=O)c1ccc(C(F)(F)F)nc1 | 185 to 187
57 | CS(=O)(=O)c1ccc(N)cc1 | 132 to 134
58 | Clc1ncnc2ccc(I)cc12 | 173 to 175
59 | CS(=O)c1c(N)cccc1Cl (centres undefined) | 107 to 109
60 | Nc1cc(C(=O)Nc2ccccc2)ccc1Cl | 199 to 201
61 | Nc1ccc(-c2nnco2)cc1 | 155 to 157
62 | CC(C)S(=O)(=O)c1ccc(CCl)cc1 | 69 to 71
63 | Nc1cc(O)cc(F)c1 | 159 to 161
64 | CCNc1ccc(C#N)cn1 | 88 to 90
65 | Clc1cc(-c2ccccc2)c2ccccc2n1 | 85 to 89
66 | O=c1[nH]nc2cncc(Cl)n12 | 169 to 171
67 | CC(NC(=O)CCl)C1CC1 (centres undefined) | 50 to 52
68 | Nc1ccc(-c2csc(N)n2)cc1 | 178 to 180
69 | NCc1cc2ccccc2[nH]1 | 71 to 73

Other lines, results leading:

Row | melting point [°C] | SMILES
70 | 84 to 86 | CNC(=O)Cc1ccc(N)cc1
71 | 119 to 121 | CCn1ccnc(N)c1=O
72 | 71 to 73 | CC(C(=O)O)C(NC(=O)OC(C)(C)C)c1ccccc1 (centres undefined)
73 | 35 to 37 | CCOC(=O)c1ccc(C=O)o1
74 | 190 to 192 | Cc1ccc(Cl)cc1NC(=O)CC#N
75 | 242 to 244 | O=C(Nc1sc2c(c1C(=O)O)CCC2)c1ccco1
76 | 113 to 115 | CC(C)(C)OC(=O)NC(C(=O)O)c1ccccc1 (centres undefined)
77 | 196 to 198 | COc1ccc(CC2(C)NC(=O)NC2=O)cc1 (centres undefined)
78 | 184 to 186 | CCS(=O)(=O)c1ccc(C(=O)O)c(N)c1
79 | 261 to 263 | Cc1ccc(-c2noc3nc(C)cc(C(=O)O)c23)cc1
80 | 98 to 100 | CCOC(=O)c1sc2ccsc2c1CBr
81 | 155 to 157 | CCOC(=O)/C(C#N)=C/Nc1ccc(I)cc1
82 | 81 to 83 | COC(=O)C(=O)CC(=O)c1ccccc1F
83 | 106 to 108 | N#CCc1ccccc1C(=O)O
84 | 56 to 58 | CCC(=O)Nc1cccc(CN)c1
85 | 195 to 197 | CCOC(=O)c1c[nH]n(CC(=O)O)c1=N
86 | 235 to 237 | Nc1c(C(=O)O)ccc(Cl)c1Cl
87 | 124 to 126 | O=C(CCl)NCC(=O)c1ccccc1

Row | melting point [°C] | SMILES
88 | 281 to 283 | CCn1c(SCC(=O)O)nnc1-c1cccc(C)c1
89 | 158 to 160 | Cc1nnnn1C(Cc1cccc(F)c1)C(=O)O (centres undefined)
90 | 90 to 92 | CCCOc1ccc(CCC(=O)O)cc1
91 | 189 to 191 | Cc1c[nH]c(=O)n1-c1cccc(C#N)c1
92 | 303 to 305 | COC(=O)c1ccc2[nH]c(=O)[nH]c2c1
93 | 163 to 165 | COc1cc(C(C)=O)ccc1OCCCC(=O)O
94 | 212 to 214 | O=C(O)c1cc(Cl)n[nH]c1=O
95 | 136 to 138 | O=C(O)CNC(=O)c1ccc(Cl)c(Cl)c1
96 | 69 to 71 | CCc1nonc1N
97 | 149 to 151 | O=C(O)CCN1C(=O)CCc2cc(F)ccc21
98 | 74 to 76 | COC(=O)c1ccccc1CCC(=O)O
99 | 154 to 156 | O=C(O)CNc1ccc(Br)cc1
100 | 52 to 54 | COC(=O)c1cc(F)cc(I)c1N
101 | 141 to 143 | CCOC(=O)/C(C#N)=C\Nc1ccc(Cl)cc1
102 | 71 to 74 | O=C(CCl)Nc1ccc(OC(F)(F)F)cc1
103 | 256 to 258 | O=C(O)c1cc(=O)n(-c2ccccc2)[nH]1
104 | 144 to 146 | CC(=O)NCCc1ccc(S(N)(=O)=O)s1
